This assay deals with T1, recombinant human 17β-HSD1 (Homo sapiens, UniProt P14061).
T1 construct: made in house; host or cells: Sd9 (Sf9) insect cells, baculovirus (Bac to Bac Expression System)
T1 sequence (P14061 1-328): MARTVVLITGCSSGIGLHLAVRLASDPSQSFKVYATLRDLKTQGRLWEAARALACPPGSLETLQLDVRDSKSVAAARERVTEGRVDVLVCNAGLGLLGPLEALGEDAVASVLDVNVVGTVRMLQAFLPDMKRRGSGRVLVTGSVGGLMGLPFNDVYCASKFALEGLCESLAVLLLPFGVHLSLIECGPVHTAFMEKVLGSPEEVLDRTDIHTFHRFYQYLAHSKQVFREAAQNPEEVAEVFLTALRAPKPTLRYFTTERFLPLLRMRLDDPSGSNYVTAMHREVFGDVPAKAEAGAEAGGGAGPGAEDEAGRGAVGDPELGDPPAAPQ
The assay can be described thus: Inhibition of recombinant human 17β-HSD1 (estrone to estradiol conversion, HPLC/radioactivity). In kind it is biochemical. Particulars: compound 100 nM; 30 nM estrone, 1 mM NADPH, 30 min RT. In short, it runs like this:
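Microsomal human 17β-HSD1 from Sf9 baculovirus (1 μg/ml) was incubated 30 min at RT in 20 mM KH2PO4 pH 7.4 with 30 nM ^3H-estrone, 1 mM NADPH and inhibitor at 1 μM or 0.1 μM (1% DMSO). Estrone and estradiol were separated by HPLC with radioactivity detection. % inhibition = 100 − % conversion relative to uninhibited control.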

The term inhibition denotes the drop in the measured response relative to a control, in per cent. For `COc1ccc(NC(=O)CC[C@@H]2c3c[nH]nc3[C@@]3(C)CCC4c5cccc(F)c5CCC4C23)nc1` (stereo partly drawn) [Compound 21, 3-((8aS,12S)-3-fluoro-8a-methyl-1,2,6b,7,8,8a,10,12,12a,12b-decahydronaphtho[2′,1′:4,5]indeno[1,2-c]pyrazol-12-yl)-N-(5-methoxypyridin-2-yl)propanamide], the inhibition at 0.1 µM was 97%.

Turning to `CN(C)C(=O)c1ccc(NC(=O)CC[C@@H]2c3c[nH]nc3[C@@]3(C)CCC4c5cccc(F)c5CCC4C23)nc1` (stereo partly drawn) [Compound 33, 6-(3-((8aS,12S)-3-fluoro-8a-methyl-1,2,6b,7,8,8a,10,12,12a,12b-decahydronaphtho[2′,1′:4,5]indeno[1,2-c]pyrazol-12-yl)propanamido)-N,N-dimethylnicotinamide], the inhibition at 0.1 µM is 95%.

`C[C@]12CCC3c4cccc(F)c4CCC3C1[C@H](CCC(=O)Nc1ccc(N3CCOCC3)cn1)c1c[nH]nc12` (stereo partly drawn) [Compound 39, 3-((8aS,12S)-3-fluoro-8a-methyl-1,2,6b,7,8,8a,10,12,12a,12b-decahydronaphtho[2′,1′:4,5]indeno[1,2-c]pyrazol-12-yl)-N-(5-morpholinopyridin-2-yl)propanamide]: the inhibition at 0.1 µM was determined as 91%.

Turning to `CC(C)c1ccc(NC(=O)CC[C@@H]2c3c[nH]nc3[C@@]3(C)CCC4c5cccc(F)c5CCC4C23)nc1` (stereo partly drawn) [Compound 36, 3-((8aS,12S)-3-fluoro-8a-methyl-1,2,6b,7,8,8a,10,12,12a,12b-decahydronaphtho[2′,1′:4,5]indeno[1,2-c]pyrazol-12-yl)-N-(5-isopropylpyridin-2-yl)propanamide], the inhibition at 0.1 µM turned out to be 100%.

Regarding `C[C@]12CCC3c4cccc(F)c4CCC3C1[C@H](CCC(=O)Nc1cnccn1)c1c[nH]nc12` (stereo partly drawn) [Compound 51, 3-((8aS,12S)-3-fluoro-8a-methyl-1,2,6b,7,8,8a,10,12,12a,12b-decahydronaphtho[2′,1′:4,5]indeno[1,2-c]pyrazol-12-yl)-N-(pyrazin-2-yl)propanamide], the inhibition at 0.1 µM was determined as 90%.

`C[C@]12CCC3c4cccc(F)c4CCC3C1[C@H](CCC(=O)Nc1ncccc1F)c1c[nH]nc12` (stereo partly drawn) [Compound 231, 3-((8aS,12S)-3-fluoro-8a-methyl-1,2,6b,7,8,8a,10,12,12a,12b-decahydronaphtho[2′,1′:4,5]indeno[1,2-c]pyrazol-12-yl)-N-(3-fluoropyridin-2-yl)propanamide]: the inhibition at 0.1 µM was determined as 86%.

For `COc1ccc(NC(=O)CC[C@@H]2c3c[nH]nc3[C@@]3(C)CCC4c5ccc(F)cc5CCC4C23)nc1` (stereo partly drawn) [Compound 84, 3-((8aS,12S)-4-fluoro-8a-methyl-1,2,6b,7,8,8a,10,12,12a,12b-decahydronaphtho[2′,1′:4,5]indeno[1,2-c]pyrazol-12-yl)-N-(5-methoxypyridin-2-yl)propanamide], the inhibition at 0.1 µM came out at 87%.

Regarding `Cn1ccc(NC(=O)CC[C@@H]2c3c[nH]nc3[C@@]3(C)CCC4c5cccc(F)c5CCC4C23)n1` (stereo partly drawn) [Compound 54, 3-((8aS,12S)-3-fluoro-8a-methyl-1,2,6b,7,8,8a,10,12,12a,12b-decahydronaphtho[2′,1′:4,5]indeno[1,2-c]pyrazol-12-yl)-N-(1-methyl-1H-pyrazol-3-yl)propanamide], the inhibition at 0.1 µM amounted to 87%.

With `CC(C)c1ccc(NC(=O)CC[C@@H]2c3c[nH]nc3[C@@]3(C)CCC4c5ccc(F)cc5CCC4C23)nc1` (stereo partly drawn) [Compound 87, 3-((8aS,12S)-4-fluoro-8a-methyl-1,2,6b,7,8,8a,10,12,12a,12b-decahydronaphtho[2′,1′:4,5]indeno[1,2-c]pyrazol-12-yl)-N-(5-isopropylpyridin-2-yl)propanamide], the inhibition at 0.1 µM came out at 87%.

`CN(C)C(=O)c1ccc(NC(=O)CC[C@@H]2c3c[nH]nc3[C@@]3(C)CCC4c5ccc(Cl)cc5CCC4C23)nc1` (stereo partly drawn) [Compound 126, 6-(3-((8aS,12S)-4-chloro-8a-methyl-1,2,6b,7,8,8a,10,12,12a,12b-decahydronaphtho[2′,1′:4,5]indeno[1,2-c]pyrazol-12-yl)propanamido)-N,N-dimethylnicotinamide]: the inhibition at 0.1 µM worked out at 89%.

Turning to `C[C@]12CCC3c4ccccc4CCC3C1[C@H](CCC(=O)Nc1cc(F)ccn1)c1c[nH]nc12` (stereo partly drawn) [Compound 162, N-(4-fluoropyridin-2-yl)-3-((8aS,12S)-8a-methyl-1,2,6b,7,8,8a,10,12,12a,12b-decahydronaphtho[2′,1′:4,5]indeno[1,2-c]pyrazol-12-yl)propanamide], the inhibition at 0.1 µM came to 91%.

On to `C[C@]12CCC3c4cccc(F)c4CCC3C1[C@H](CCC(=O)Nc1cc3c([nH]c1=O)CCCC3)c1c[nH]nc12` (stereo partly drawn) [Compound 30, 3-((8aS,12S)-3-fluoro-8a-methyl-1,2,6b,7,8,8a,10,12,12a,12b-decahydronaphtho[2′,1′:4,5]indeno[1,2-c]pyrazol-12-yl)-N-(2-oxo-1,2,5,6,7,8-hexahydroquinolin-3-yl)propanamide], for which the inhibition at 0.1 µM was found to be 95%.

Take `C[C@]12CCC3c4cccc(F)c4CCC3C1[C@H](CCC(=O)Nc1ncc(F)cc1F)c1c[nH]nc12` (stereo partly drawn) [Compound 9, N-(3,5-difluoropyridin-2-yl)-3-((8aS,12S)-3-fluoro-8a-methyl-1,2,6b,7,8,8a,10,12,12a,12b-decahydronaphtho[2′,1′:4,5]indeno[1,2-c]pyrazol-12-yl)propanamide]: the inhibition at 0.1 µM was determined as 82%.

On to `Cc1ccnc(NC(=O)CC[C@@H]2c3c[nH]nc3[C@@]3(C)CCC4c5ccccc5CCC4C23)c1` (stereo partly drawn) [Compound 168, 3-((8aS,12S)-8a-methyl-1,2,6b,7,8,8a,10,12,12a,12b-decahydronaphtho[2′,1′:4,5]indeno[1,2-c]pyrazol-12-yl)-N-(4-methylpyridin-2-yl)propanamide], for which the inhibition at 0.1 µM worked out at 90%.

In the case of `C[C@]12CCC3c4cccc(F)c4CCC3C1[C@H](CCC(=O)NC1CCCCC1)c1c[nH]nc12` (stereo partly drawn) [Compound 207, N-cyclohexyl-3-((8aS,12S)-3-fluoro-8a-methyl-1,2,6b,7,8,8a,10,12,12a,12b-decahydronaphtho[2′,1′:4,5]indeno[1,2-c]pyrazol-12-yl)propanamide], the inhibition at 0.1 µM was 95%.

Consider `C[C@]12CCC3c4cccc(F)c4CCC3C1[C@H](CCC(=O)N1Cc3ccccc3C1)c1c[nH]nc12` (stereo partly drawn) [Compound 57, 3-((8aS,12S)-3-fluoro-8a-methyl-1,2,6b,7,8,8a,10,12,12a,12b-decahydronaphtho[2′,1′:4,5]indeno[1,2-c]pyrazol-12-yl)-1-(isoindolin-2-yl)propan-1-one], for which the inhibition at 0.1 µM worked out at 92%.

Take `C[C@]12CCC3c4ccccc4CCC3C1[C@H](CCC(=O)Nc1cnccn1)c1c[nH]nc12` (stereo partly drawn) [Compound 189, 3-((8aS,12S)-8a-methyl-1,2,6b,7,8,8a,10,12,12a,12b-decahydronaphtho[2′,1′:4,5]indeno[1,2-c]pyrazol-12-yl)-N-(pyrazin-2-yl)propanamide]: the inhibition at 0.1 µM was 90%.

In the case of `COc1ccc(NC(=O)CC[C@@H]2c3c[nH]nc3[C@@]3(C)CCC4c5ccccc5CCC4C23)nc1` (stereo partly drawn) [Compound 141, N-(5-methoxypyridin-2-yl)-3-((8aS,12S)-8a-methyl-1,2,6b,7,8,8a,10,12,12a,12b-decahydronaphtho[2′,1′:4,5]indeno[1,2-c]pyrazol-12-yl)propanamide], the inhibition at 0.1 µM amounted to 93%.
